Reference: ChEMBL document CHEMBL4052811, “Design, synthesis and antiproliferative activity of novel substituted 2-amino-7,8-dihydropteridin-6(5H)-one derivatives” (Bioorg Med Chem Lett, 2017)

Experiments:
MDA-MB-468 [1] = experiment: Cytotoxicity against human MDA-MB-468 cells after 48 hrs by MTT assay; format: functional, cell-based; settings: MDA-MB-468, 48 h
MDA-MB-231 = experiment: Cytotoxicity against human MDA-MB-231 cells after 48 hrs by MTT assay; format: functional, cell-based; settings: MDA-MB-231, 48 h
BT-549 [2] = experiment: Cytotoxicity against human BT549 cells after 48 hrs by MTT assay; format: functional, cell-based; settings: BT-549, 48 h
T47D [3] = experiment: Cytotoxicity against human T47D cells after 48 hrs by MTT assay; format: functional, cell-based
T47D [4] = experiment: Cell cycle arrest in human T47D cells assessed as accumulation at G1 phase after 12 to 48 hrs by FACS analysis; format: functional, cell-based
T47D [5] = experiment: Potency index, ratio of fluorouracil IC50 to compound IC50 for human T47D cells; format: functional
MDA-MB-468 [6] = experiment: Potency index, ratio of fluorouracil IC50 to compound IC50 for human MDA-MB-468 cells; format: functional
BT-549 [7] = experiment: Potency index, ratio of fluorouracil IC50 to compound IC50 for human BT549 cells; format: functional
T47D [8] = experiment: Cell cycle arrest in human T47D cells assessed as accumulation at G0/G1 phase at 3 uM after 12 to 48 hrs by FACS analysis (reference value: 59.67%); format: functional
T47D [9] = experiment: Cell cycle arrest in human T47D cells assessed as accumulation at G0/G1 phase at 6 uM after 12 to 48 hrs by FACS analysis (reference value: 59.67%); format: functional
T47D [10] = experiment: Cell cycle arrest in human T47D cells assessed as accumulation at S phase at 3 uM after 12 to 48 hrs by FACS analysis (reference value: 21.82%); format: functional
T47D [11] = experiment: Cell cycle arrest in human T47D cells assessed as accumulation at G2/M phase at 6 uM after 12 to 48 hrs by FACS analysis (reference value: 18.51%); format: functional
T47D [12] = experiment: Cell cycle arrest in human T47D cells assessed as accumulation at G2/M phase at 3 uM after 12 to 48 hrs by FACS analysis (reference value: 18.51%); format: functional
T47D [13] = experiment: Cell cycle arrest in human T47D cells assessed as accumulation at S phase at 12 uM after 12 to 48 hrs by FACS analysis (reference value: 21.82%); format: functional
T47D [14] = experiment: Cell cycle arrest in human T47D cells assessed as accumulation at G0/G1 phase at 12 uM after 12 to 48 hrs by FACS analysis (reference value: 59.67%); format: functional
T47D [15] = experiment: Cell cycle arrest in human T47D cells assessed as accumulation at G2/M phase at 12 uM after 12 to 48 hrs by FACS analysis (reference value: 18.51%); format: functional
T47D [16] = experiment: Cell cycle arrest in human T47D cells assessed as accumulation at S phase at 6 uM after 12 to 48 hrs by FACS analysis (reference value: 21.82%); format: functional

COc1ccc(Nc2ncc3c(n2)NCC(=O)N3)cc1
IC50 (MDA-MB-468 [1]): > 100 µM
IC50 (MDA-MB-231): > 100 µM
IC50 (BT-549 [2]): 95 µM
IC50 (T47D [3]): 89.2 µM

COc1cccc(Nc2ncc3c(n2)NCC(=O)N3)c1
IC50 (MDA-MB-468 [1]): > 100 µM
IC50 (MDA-MB-231): 93.2 µM
IC50 (BT-549 [2]): > 100 µM
IC50 (T47D [3]): > 100 µM

O=C1CN(Cc2ccccc2)c2nc(NCCc3ccccc3)ncc2N1
IC50 (MDA-MB-468 [1]): 7.75 µM
Activity (T47D [4]): Dose-dependent effect
IC50 (MDA-MB-231): 22.4 µM
Ratio IC50 (T47D [5]): 11
Ratio IC50 (MDA-MB-468 [6]): 49
Ratio IC50 (BT-549 [7]): 8
Activity (T47D [8]): 61.25%
Activity (T47D [9]): 72.7%
Activity (T47D [10]): 18.98%
IC50 (BT-549 [2]): 10.7 µM
Activity (T47D [11]): 16.5%
Activity (T47D [12]): 19.76%
IC50 (T47D [3]): 6.37 µM
Activity (T47D [13]): 4.34%
Activity (T47D [14]): 74.68%
Activity (T47D [15]): 20.98%
Activity (T47D [16]): 10.8%

COc1cccc(CNc2ncc3c(n2)N(Cc2ccccc2)CC(=O)N3)c1
IC50 (MDA-MB-468 [1]): 23.2 µM
IC50 (MDA-MB-231): 47 µM
IC50 (BT-549 [2]): 15.6 µM
IC50 (T47D [3]): 15.3 µM

COc1cc(Nc2ncc3c(n2)N(C)CC(=O)N3)cc(OC)c1OC
IC50 (MDA-MB-468 [1]): 66.1 µM
IC50 (MDA-MB-231): 46.2 µM
IC50 (BT-549 [2]): 45.2 µM
IC50 (T47D [3]): 56.2 µM

CCOC(=O)CNc1ncc2c(n1)N(Cc1ccccc1)CC(=O)N2
IC50 (MDA-MB-468 [1]): > 100 µM
IC50 (MDA-MB-231): > 100 µM
IC50 (BT-549 [2]): > 100 µM
IC50 (T47D [3]): > 100 µM

CN1CC(=O)Nc2cnc(Nc3ccccc3)nc21
IC50 (MDA-MB-468 [1]): > 100 µM
IC50 (MDA-MB-231): > 100 µM
IC50 (BT-549 [2]): > 100 µM
IC50 (T47D [3]): > 100 µM

CN1CC(=O)Nc2cnc(Nc3ccc(Cl)cc3)nc21
IC50 (MDA-MB-468 [1]): 31.3 µM
IC50 (MDA-MB-231): > 100 µM
IC50 (BT-549 [2]): 91 µM
IC50 (T47D [3]): 36 µM

O=c1[nH]cc(F)c(=O)[nH]1 [FLUOROURACIL]
IC50 (MDA-MB-468 [1]): 95.7 µM
IC50 (MDA-MB-231): 53.5 µM
IC50 (BT-549 [2]): 98.2 µM
IC50 (T47D [3]): 171 µM

O=C1CNc2nc(Nc3ccccc3)ncc2N1
IC50 (MDA-MB-468 [1]): > 100 µM
IC50 (MDA-MB-231): > 100 µM
IC50 (BT-549 [2]): > 100 µM
IC50 (T47D [3]): 85.4 µM

O=C1CN(Cc2ccccc2)c2nc(Nc3ccccc3)ncc2N1
IC50 (MDA-MB-468 [1]): 20.6 µM
IC50 (MDA-MB-231): 37 µM
IC50 (BT-549 [2]): 11.9 µM
IC50 (T47D [3]): 15.2 µM

CN1CC(=O)Nc2cnc(NCCc3ccccc3)nc21
IC50 (MDA-MB-468 [1]): 56.2 µM
IC50 (MDA-MB-231): 34.2 µM
IC50 (BT-549 [2]): 41.2 µM
IC50 (T47D [3]): 23.2 µM

CS(=O)(=O)N1CCC(Nc2ncc3c(n2)N(Cc2ccccc2)CC(=O)N3)CC1
IC50 (MDA-MB-468 [1]): 97.4 µM
IC50 (MDA-MB-231): > 100 µM
IC50 (BT-549 [2]): > 100 µM
IC50 (T47D [3]): > 100 µM

COc1cc(Nc2ncc3c(n2)N(Cc2ccccc2)CC(=O)N3)cc(OC)c1OC
IC50 (MDA-MB-468 [1]): > 100 µM
IC50 (MDA-MB-231): 10.6 µM
IC50 (BT-549 [2]): 12.8 µM
IC50 (T47D [3]): 8.76 µM

O=C1CNc2nc(Nc3ccc(Cl)cc3)ncc2N1
IC50 (MDA-MB-468 [1]): 15 µM
IC50 (MDA-MB-231): 41.6 µM
IC50 (BT-549 [2]): 17.7 µM
IC50 (T47D [3]): 29.3 µM

CN1CC(=O)Nc2cnc(NCc3ccccc3)nc21
IC50 (MDA-MB-468 [1]): 94.4 µM
IC50 (MDA-MB-231): 92 µM
IC50 (BT-549 [2]): 78.8 µM
IC50 (T47D [3]): 89.7 µM

COc1cccc(Nc2ncc3c(n2)N(Cc2ccccc2)CC(=O)N3)c1
IC50 (MDA-MB-468 [1]): 40.4 µM
IC50 (MDA-MB-231): 99.9 µM
IC50 (BT-549 [2]): 81.1 µM
IC50 (T47D [3]): 78.7 µM

CCOC(=O)CN(Cc1ccccc1)c1nc(NCCc2ccccc2)ncc1[N+](=O)[O-]
IC50 (MDA-MB-468 [1]): 6.26 µM
IC50 (MDA-MB-231): 24.2 µM
IC50 (BT-549 [2]): 13.7 µM
IC50 (T47D [3]): 6.59 µM

O=C1CN(Cc2ccccc2)c2nc(Nc3ccc(Cl)cc3)ncc2N1
IC50 (MDA-MB-468 [1]): > 100 µM
IC50 (MDA-MB-231): > 100 µM
IC50 (BT-549 [2]): > 100 µM
IC50 (T47D [3]): > 100 µM

CN1CCN(Nc2ncc3c(n2)N(Cc2ccccc2)CC(=O)N3)CC1
IC50 (MDA-MB-468 [1]): > 100 µM
IC50 (MDA-MB-231): 98.3 µM
IC50 (BT-549 [2]): 98.3 µM
IC50 (T47D [3]): 79 µM

O=C1CNc2nc(Nc3ccc(F)cc3)ncc2N1
IC50 (MDA-MB-468 [1]): > 100 µM
IC50 (MDA-MB-231): > 100 µM
IC50 (BT-549 [2]): 92.4 µM
IC50 (T47D [3]): > 100 µM

COc1cccc(Nc2ncc3c(n2)N(C)CC(=O)N3)c1
IC50 (MDA-MB-468 [1]): > 100 µM
IC50 (MDA-MB-231): > 100 µM
IC50 (BT-549 [2]): > 100 µM
IC50 (T47D [3]): > 100 µM
